Measurements reported in US9555061B2, “Synthesis and analysis of compounds capable of inducing differentiation of human mesenchymal stems cells into hepatocytes” (National University Corporation Torrori University, priority 2011, dated 2017).

Key:
UE7T-13 cells [1] = assay: Proliferation potential (toxicity), MTT assay (UE7T-13); conditions: for concentration with very low cell toxicity toward UE7T-13 cells: days 2, 4, 8 of treatment
[2] = system: Wnt/β-catenin signaling pathway; assay: Ability of inhibiting Wnt/β-catenin pathway, luciferase assay (UE7T-13); assay type: cell-based, human; conditions: 8 days after the treatment; pTCF4-CMV-luciferase reporter
Source text: FIG. 3 is a schematic diagram illustrating how to establish a human mesenchymal stem cell stably expressing a β-catenin/TCF4/luciferase reporter gene. FIG. 3 illustrates how to construct pTCF4-CMVpro-GL4.20 plasmid by using a luciferase expression vector. The pTCF4-CMVpro-GL4.20 plasmid contains three TCF4 sequences […] upstream of a CMV promoter to express luciferase. In addition, pCMVpro-GL4.20 plasmid was constructed as a control. The resulting plasmids were each linearized, introduced into UE7T-13 by electroporation, and selected using puromycin (0.25 μg/ml) supplemented in a medium. Puromycin-resistant cells were cloned and used for a luciferase assay.
The cell line having a vector stably expressing luciferase was seeded on a 24-well plate, and was cultured at 37° C. At the next day, the medium was changed to a medium containing IC-2, etc., and the cell line was further cultured at 37° C. After that, at days 1, 4, and 8, a luciferase assay system (Promega) was used and the luciferase activity was read with a fluorescence plate reader (ARVO) at a wavelength of 556 nm.

UE7T-13 cells [3] = assay: Periodic acid-Schiff (PAS) staining (UE7T-13); assay type: cell-based, human
Description: (3-4) Periodic Acid-Schiff (PAS) Staining (UE7T-13) A cover glass (22×22 mm, […]) was sterilized with 70% EtOH and placed in a 6-well plate. Next, cells were seeded on the cover glass and cultured in a medium containing IC-2, etc. At 8, 16, and 24 days after the initiation of the culture, the cells were washed twice with PBS. Then, the cells were treated with 4% paraformaldehyde/PBS for 20 min and fixed onto the cover glass. As a negative control, 10 mg/ml of α-amylase (10 mg/ml; in 0.1 M phosphate buffer solution at pH 6.8) was added, and the cells were incubated therewith at 37° C. for 1 h to digest their glycogen. Subsequently, 1% aqueous periodic acid was used for oxidation treatment for 10 min. After that, the cells were treated with a Schiff reagent for 15 min to stain glycogen. Then, the cells were washed three times with aqueous sulfurous acid and were washed three times with distilled water. After their nuclei were stained with Mayer's hematoxylin, 50% glycerol diluted with PBS was used to mount the cover glass. Finally, the cells were observed under a light microscope. The cells which had been cultured with 0.1% DMSO were used as a control.

[4] = system: clinical specimen-derived mesenchymal stem cells; assay: RT-PCR of hepatocyte differentiation marker in clinical specimen-derived mesenchymal stem cells; assay type: cell-based, human; conditions: hexachlorophene 4 μM, HC-2 20 μM, PN-3-13 20 μM, IC-2 40 μM
Description: A fresh bone marrow aspirate was collected under informed consent from a patient (a person) with osteoarthritis who underwent replacement arthroplasty at the Department of Orthopedic Surgery, Tottori University Hospital. This aspirate was subjected to density gradient centrifugation using ficoll (Amersham Biosciences) to separate bone marrow mononuclear cells (FIG. 31). These bone marrow mononuclear cells were suspended in 1 ml of Hanks' balanced salt solution (HBSS, Gibco, Life Technologies Corp.) supplemented with a 100-fold diluted APC-labeled anti-CD90 antibody, a 407-fold diluted PE-labeled anti-CD271 antibody, and 2% fetal bovine serum (FBS, Defined, Thermo Fisher Scientific Inc.), and were stained on ice for 30 min. A flow cytometer (MoFlo XDP, Beckman Coulter Inc.) was used to selectively separate mesenchymal stem cells. The resulting cells were cultured in Dulbecco's Modified Eagle's Medium (Low Glucose, Gibco, Life Technologies Corp.) containing 20% FBS, 100 U/ml penicillin, […] streptomycin (Nacalai Tesque), and 20 ng/ml basic fibroblast growth factor (TRANS GENIC INC., Ltd.) on a 35-mm dish under conditions at 37° C. and 5% CO2. The medium was changed every 4 days. After colonies were formed, the cells were detached using a 0.025% trypsin/1 mM EDTA solution (Nacalai Tesque), split on a 100-mm dish, and cultured under conditions at 37° C. and 5% CO2. Then, the cells which were kept 70 to 80% confluent were detached using trypsin treatment. These cells in one dish were divided into four dishes for passage.
Cells were seeded on a 6-well plate at a cell density of 1.8×10^4 cells/cm^2. This day was designated as day 0. At day 1 corresponding to the next day, the medium was changed to a medium containing any one of hexachlorophene (at a final concentration of 4 μM), HC-2 (at a final concentration of 20 μM), PN-3-13 (at a final concentration of 20 μM), IC-2 (at a final concentration of 40 μM), and 0.1% DMSO. […]

[5] = system: CD90+CD271+ bone marrow-derived mesenchymal stem cells; assay: Urea assay in CD90+CD271+ bone marrow-derived mesenchymal stem cells; assay type: cell-based, human; conditions: hexachlorophene 4 μM, PN-3-13 20 μM, IC-2 40 μM; day 8 plus 96 h ammonium chloride
Description: A urea assay was performed according to the following protocol. CD90^+CD271^+ bone marrow-derived mesenchymal stem cells were seeded on a 24-well plate at a cell density of 1.8×10^4 cells/cm^2. This day was designated as day 0. At day 1 corresponding to the next day, each medium was changed to a medium containing hexachlorophene (at a final concentration of 4 μM), HC-2 (at a final concentration of 20 μM), PN-3-13 (at a final concentration of 20 μM), IC-2 (at a final concentration of 40 μM), or 0.1% DMSO. At day 4, the medium was changed in a manner similar to that at day 1, and the cells were cultured until day 8. At day 8, the medium was removed, and replaced with a medium containing ammonium chloride (Nacalai Tesque) at a final concentration of 5 mM. The cells were further cultured for 96 h. At 96 h after the addition of ammonium chloride, levels of urea in the medium were determined using a QuantiChrom Urea Assay Kit (BioAssay Systems) according to the attached protocol by reading the absorbance at a wavelength of 520 nm with a microplate reader. The levels of urea were calculated based on a standard sample according to the attached calculation method. As a negative control for the urea assay, used were CD90^+CD271^+ bone marrow-derived mesenchymal stem cells that were seeded one day before the day of the immunostaining and were not subjected to the differentiation induction.

UE7T-13 cells [6] = assay: RT-PCR of genes encoding liver-specific secretory proteins and cytokines (UE7T-13); assay type: cell-based, human; conditions: hexachlorophene 0.8 μM or IC-2 15 μM; days 8, 16, 24
Description: Bone marrow-derived mesenchymal stem cells (UE7T-13 cells) were treated with a compound, hexachlorophene (H4625-25G; Sigma-Aldrich, Inc.) or IC-2. At that time, gene expression of each of liver-specific secretory proteins and cytokines was evaluated. […] This time point was set to day 0.
At the next day corresponding to day 1, the medium was changed to DMEM containing hexachlorophene at a final concentration of 0.8 μM or IC-2 at a final concentration of 15 μM. […] After that, the medium was replaced twice during 8 days, and the cells were subcultured every 8 days. Then, the similar operation was carried out until day 24. At days 8, 16, and 24 after the initiation of the induction, TRIzol (Invitrogen) was used to extract total RNA according to the attached instruction. After the extraction, deoxyribonuclease (Nippon Gene) was added, and the mixture was incubated at 37° C. for 30 min to remove DNA. In a reverse transcription reaction, SuperScriptII Reverse Transcriptase (Invitrogen) and Oligo(dT)15 primer were added to 1 μg of RNA to convert it into cDNA. In a RT-PCR method, the cDNA was diluted by 5 times. Next, 1 μl of the cDNA was used as a template. Then, rTaq DNA polymerase (TOYOBO) was used to amplify the cDNA. MQ water was used as a negative control. cDNA from Huh-7 or UE7T-13 cells was used as a positive control. […]

Cc1ccc(/C=N/NC(=O)c2cccc(Oc3ccccc3)c2)o1 [PN-1-2, N′-[(E)-(5-methyl-2-fulyl)methylidene]-3-phenoxybenzohydrazide]
concentration at which proliferation potential did not remain (UE7T-13 cells [1]; day 8): 10 µM | concentration with very low cell toxicity toward UE7T-13 cells (UE7T-13 cells [1]): ≤ 40 µM | concentration that significantly inhibited the Wnt/β-catenin signaling pathway [2]: ≥ 3 µM

O=C(N/N=C/c1cccc2ccccc12)c1ccccc1Oc1ccccc1 [PN-3-4, N′-[(E)-1-naphtylmethylidene]-2-phenoxybenzohydrazide]
concentration with very low cell toxicity toward UE7T-13 cells (UE7T-13 cells [1]): ≤ 30 µM | concentration that significantly inhibited the Wnt/β-catenin signaling pathway [2]: ≥ 20 µM

Cc1ccc(C=NNC(=O)c2ccccc2Oc2ccccc2)o1 [PNU-74654, N-[(5-methyl-2-furyl)methylideneamino]-2-phenoxy-benzamide]
intracellular glycogen accumulation compared with negative control (0.1% DMSO) (UE7T-13 cells [3]): did not increase

Oc1c(Cl)cc(Cl)c(Cl)c1Cc1c(O)c(Cl)cc(Cl)c1Cl [hexachlorophene, reference compound]
expression of albumin [4]: induced | cellular urea synthesis compared with negative control (0.1% DMSO) [5]: apparent increase | expression of a plurality of the liver-specific secretory proteins and cytokines (UE7T-13 cells [6]): increased levels of expression
